Here are results for three molecules from patent US11904051B2, “Shear stress sensitive liposomes” (Universität Basel, priority 2018, dated 2024).

Like-named read-outs stand apart in the source and are kept apart here.

A short description of data set [1]: Dynamic light scattering of liposome formulations before and after SANS heating cycles. The settings on record: for PDI, Before heating / Size (hydrodynamic), Before heating: before the SANS experiments (n = 5); for Size (hydrodynamic), Before heating: room temperature, D2O; for DLS larger population size: bimodal size distribution; for PDI, After heating / Size (hydrodynamic), After heating: after the SANS experiments (n = 3); for Size (hydrodynamic), After heating: heating to 42° C. and back, eight months after. Type of data set: physicochemical. How it is done:
A library of artificial phospholipids was synthesised. Table 5 summarises the characterisation of the liposomal formulations concerning hydrodynamic size and polydispersity, before and after the temperature-dependent SANS measurements. The size of the DPPC and Pad-PC-Pad liposomes was (120±2) nm with a polydispersity index between 0.01 and 0.20. […] Pad-Pad-PC and Sur-PC-Sur liposomes were 400 to 1,500 nm in size with a polydispersity index of 0.57.
DLS measurements were carried out on a DelsaMax PRO (Beckman Coulter, USA) at room temperature and at a lipid concentration of 0.3 mg/mL in D2O. The data were averaged among five independent measurements before heating cycles and three measurements eight months after applying heating cycles. Data were treated with the cumulant analysis method.

Data set [2] can be described thus: Small-angle neutron scattering (SANS) of liposomes as a function of temperature. It counts as physicochemical. The text has this:
In order to determine the structural parameters, including the bilayer thickness of the selected liposomal formulations, a suitable model for data fitting has to be identified. […] The structure factor was fitted using the sticky hard sphere model (Baxter et al., The Journal of Chemical Physics 1968, 49 (6), 2770-2774; Mays, Langmuir 1989, 5, 422-428). In order to adjust the form factor to the overall shape of the liposomes, an ellipsoidal shell model with a homogeneous cross-section (Guinier, Annales de Physique, 1939; pp 161-237) was applied. The elliptical shell model is defined by three orthogonal axes with lengths a=R, b=R and c=εR, along with eccentricity ε>0, (ε<1: oblate, ε=1: spherical, ε>1: prolate). The model also accounts for variations in bilayer thickness and liposome size. As the scattering data of the Pad-PC-Pad liposomes at the temperature of 35° C. could not be approximated satisfactorily by means of the ellipsoidal shell, the inventors included disks with a homogeneous cross-section—an approach motivated by the cryo-TEM results. Together with the experimental data of the Pad-PC-Pad liposomes at three selected temperatures, the obtained fits are represented in FIG. 23.
The inventors recognised that the inhomogeneity of the liposomal formulations, except for Pad-PC-Pad, concerning the shape and size of the artificial lipids in this study only allows for the reasonable fitting of the q-range, which corresponds to bilayer thickness. For this purpose, the inventors applied an extended Guinier law (Hjelm et al., The Journal of Physical Chemistry B 2000, 104 (2), 197-211; Fratzl, Journal of Statistical Physics 1994, 77 (1-2), 125-143), which yields the thickness of the bilayer. To account for possible multi-lamellarity, the inventors included a para-crystalline stacking model (Schwartz et al., Biophysical journal 1975, 15 (12), 1201-1233; FruÈhwirth et al., Journal of Applied Crystallography 2004, 37 (5), 703-710) as a structure factor.
SANS measurements were performed at the SANS-I beamline at the Swiss Spallation Neutron Source SINQ facility (Paul Scherrer Institute, Villigen, Switzerland). The samples were loaded into 2 mm-path length, boron-free quartz glass cells and mounted in a temperature-controlled holder. This system allows for controlling the temperature of the specimen with an accuracy better than 1 K. The liposomal suspensions were measured between 22 and 42° C. in 3 to 4 K steps. Subsequently, the suspensions were cooled down to room temperature (22° C.) and measured again. Three detector distances, i.e. 1.6, 6.0 and 18.0 m, were used to collect data over the range of scattering vectors 0.01 nm^−1<q<10 nm^−1 at the neutron wavelengths (A) […]. Data were collected with a two-dimensional ^3He-detector with an array of 128×128 pixels and reduced to one-dimensional I(q) scattering curves, thus radially averaging the two-dimensional images. The data were corrected for transmission, background scattering and detector efficiency according to a standard procedure using the BerSANS software package (Keiderling, Applied Physics A 2002, 74 (1), s1455-s1457; Strunz et al., Journal of Applied Crystallography 2000, 33 (3 Part 1), 829-833).
The SANS data were analysed using SASfit software (Breßler et al., Journal of Applied Crystallography 2015, 48 (5), 1587-1598) and corresponding models. A Pad-PC-Pad sample was fitted over the entire measured q-range, whereas we restricted the fit for the other samples to the q-range, which corresponds to lipid bilayer thickness. For Pad-PC-Pad, the inventors used an ellipsoidal shell model with a homogeneous cross-section (Guinier, Annales de Physique, 1939; pp 161-237) and size distributions in terms of both thickness and radius. […]

The conditions of data set [3]: reported previously, cited from earlier work.
Data set [4] can be described thus: Differential scanning calorimetry, main phase transition of vesicle membranes. It counts as physicochemical. The settings on record: main phase transition temperature of liposome membrane. The source says: Interdigitation of membrane leaflets also influences the membranes main-phase transition temperature. […] Also, the value for the bilayer main-phase transition temperature is 11.5 K higher than the calculated critical temperature from the monolayer experiments, where no interdigitation is possible.
On the technique in general: DSC measures the heat that a sample takes up or gives off during a temperature scan.

The nature of data set [5]: Release experiments with 5(6)-carboxyfluorescein-loaded large unilamellar vesicles (LUVET100), spontaneous and vortex-triggered. It counts as physicochemical. The source says: FIG. 8 Release experiments using 5(6)-carboxyfluorescein-loaded large unilamellar vesicles comprising 1,3-diheptadecanamidopropan-2-yl (2-(trimethylammonio) ethyl) phosphate (4) obtained via extrusion through a 100 nm track-edged filter membrane (LUVET100). Triggered release was induced by shaking the samples for a specific amount of time on a vortex-shaker.
Previously the inventors reported the 5(6)-carboxyfluorescein release from vesicles containing 1,3-palmitoylamido-1,3-deoxy-sn-glycero-2-phosphatidylcholine (2) (Holme et al., Nat. Nanotechnol. 2012, 7, 536-543). […] Increasing the Tm promises improved release properties. […] This leads to a lower leakage of the vesicles at 22° C. (room temperature) as well as 37° C. (average human body temperature) (FIG. 8). A prolongation if the acyl chain to the artificial C18 phospholipid 1,3-stearoylamido-1,3-deoxy-sn-glycero-2-phosphatidylcholine leads to an increased Tm of 52° C., but this phospholipid forms almost no liposomes anymore.
Each sample was treated with Triton X-100 to induce a full release of 5(6)-carboxy fluorescein.
Large unilamellar vesicles with a diameter of 100 nm (LUVET100) of the 1,3-diheptadecanamidopropan-2-yl (2-(trimethylammonio) ethyl) phosphate (4) were prepared following the extrusion protocol: in a 25 ml round bottom flask, 10 mg of the lipid was dissolved in CH2Cl2. After evaporation of the organic solvent, the film was further dried under high vacuum (40 mbar) overnight. Then the film was hydrated with the internal buffer for 30 min (1 ml, 50 mM 5(6)-carboxyfluorescein, 10 mM HEPES buffer (AppliChem), 10 mM NaCl dissolved in pure water, pH 7.4). Now at least 5 freeze-thaw cycles (liquid N2 to 65° C.) were carried out before the suspension was extruded 11 times using a Mini Extruder (Avanti Polar Lipids, USA) using track-edged filters with a mesh size of 100 nm (Whatman, USA). The external buffer was then exchanged on a size exclusion column (1.5×20 cm Sephadex G-50 column) in external buffer (107 mM NaCl dissolved in ultrapure water, 10 mM HEPES, pH 7.4).

Setting [6] is: 22 ° C. (after cooling down to room temperature).

As for `CCCCCCCCCCCCCCCC(=O)NC[C@H](COP(=O)([O-])OCC[N+](C)(C)C)NC(=O)CCCCCCCCCCCCCCC` [Pad-Pad-PC], in data set [1], the “DLS most probable / dominant or smaller population size” value was “about 150 nm”. The “PDI, Before heating” value in data set [1] was 0.57; in data set [1] (listed as Pad-Pad-PC (2)) it was 0.57 ± 0.01. For the same molecule, the “Size (hydrodynamic), Before heating” value in data set [1] (listed as Pad-Pad-PC (2)) is given as 1500 ± 30 nm. For the same molecule, in data set [1], the “DLS larger population size” value is approximately 3 μm. Also, the most probable bilayer thickness in data set [2] (22 ° C.) turned out to be 5.57 nm; in data set [2] (setting [6]), 5.67 nm; in data set [2] (25 ° C.), 5.55 nm; in data set [2] (28 ° C.), 5.55 nm; in data set [2] (32 ° C.), 5.52 nm; in data set [2] (35 ° C.), 5.54 nm. Also, the most probable bilayer thickness in data set [2] (39 ° C.) worked out at 5.58 nm; in data set [2] (42 ° C.), 5.57 nm. The entries for the “Tm, main phase transition temperature” value in data set [3] and in data set [3] (listed as Pad-Pad-PC (2)) were 46 °C and 40-47 °C, respectively.
For `CCCCCCCCCCCCCCCC(=O)OCC(COC(=O)CCCCCCCCCCCCCCC)OP(=O)([O-])OCC[N+](C)(C)C` [Pes-PC-Pes], the “DLS most probable / dominant or smaller population size” value in data set [1] is on record as “about 100 nm”. Also, the “PDI, After heating” value in data set [1] is reported as 0.92 ± 0.08. In addition, the “Size (hydrodynamic), After heating” value in data set [1] came out at 3100 ± 200 nm. Moreover, the “PDI, Before heating” value in data set [1] is recorded as 0.57 ± 0.01. Further, the “Size (hydrodynamic), Before heating” value in data set [1] (listed as Pes-PC-Pes (3)) was determined as 170 ± 20 nm. Also, the “DLS larger population size” value in data set [1] is on record as approximately 1 μm. Besides, the most probable bilayer thickness in data set [2] (22 ° C.) turned out to be 3.9 nm; in data set [2] (setting [6]), 4.82 nm; in data set [2] (25 ° C.) it was 4.17 nm; in data set [2] (28 ° C.) it was 4.46 nm; in data set [2] (32 ° C.), 4.42 nm; in data set [2] (35 ° C.) it was 4.6 nm. Besides, the most probable bilayer thickness is 4.68 nm in data set [2] (39 ° C.) and 4.58 nm in data set [2] (42 ° C.). Moreover, the “increase in bilayer thickness at phase transition” value in data set [2] (present study) was found to be 18%. The “increase in bilayer thickness after the heating cycle” value in data set [2] (temperature cycle to 42° C. including cooling to room temperature) worked out at 24%. Further, in data set [3], the “Tm, main phase transition temperature” value is 39 °C.
Turning to `CCCCCCCCCCCCCCCCCC(=O)NCC(CNC(=O)CCCCCCCCCCCCCCCCC)OP(=O)([O-])OCC[N+](C)(C)C` [Sad-PC-Sad, 1,3-distearamidopropan-2-phosphocholine], the “DLS most probable / dominant or smaller population size” value in data set [1] is on record as 160 nm. Besides, the “PDI, After heating” value in data set [1] came to 0.20 ± 0.02. In addition, the “Size (hydrodynamic), After heating” value in data set [1] worked out at 220 ± 10 nm. Moreover, the “PDI, Before heating” value in data set [1] is listed as 0.23 ± 0.01. In addition, the “Size (hydrodynamic), Before heating” value in data set [1] (listed as Sad-PC-Sad (6)) was determined as 160 ± 3 nm. In data set [2] (22 to 42° C.), the bilayer thickness variations is listed as not above 10%. The most probable bilayer thickness in data set [2] (22 ° C.) turned out to be 3.15 nm; in data set [2] (setting [6]) it was 3.01 nm; in data set [2] (25 ° C.) it was 3.51 nm; in data set [2] (28 ° C.), 3.51 nm; in data set [2] (32 ° C.), 3.49 nm; in data set [2] (35 ° C.), 3.46 nm. Moreover, the most probable bilayer thickness in data set [2] (39 ° C.) amounted to 3.38 nm; in data set [2] (42 ° C.) it was 3.33 nm. Moreover, the “Tm, main phase transition temperature” value in data set [3] is 52 °C. Further, the Tm in data set [4] turned out to be 52 °C. Also, the “Release at 37° C. after 2 h” value in data set [5] (37° C., 2 h) worked out at 9.1%. Further, the “Release at RT after 60 s vortex” value in data set [5] (mechanically induced release, 22° C. (RT), 60 s vortexing) amounted to 8.32%. Besides, in data set [5] (mechanically induced release, 37° C., 60 s vortexing), the “Release 37° C. after 60 s vortex” value amounted to 40.2%. In data set [5] (spontaneous release, RT, (6 days)), the “Release at RT after 6 days” value came out at 8.4%.
